ChEMBL document CHEMBL1201862, “PubChem BioAssay data set” (2004)
Calls of active or inactive are those of the source.

Legend:
[1] = target: T1, ATP-dependent translocase ABCB1 (Homo sapiens, UniProt P08183); assay: ABCB1 efflux inhibitor potency, dose response, Jurkat-DNR cells, JC-1, flow cytometry, set 2 (AID 504569); type: functional; settings: read-out: EC50_MICROM_;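 further: potency of pump inhibitors that raise cellular JC-1 green fluorescence up to the nicardipine level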
[2] = target: T1, ATP-dependent translocase ABCB1; assay: ABCG2 efflux pump inhibitor potency, dose response, Ig-MXP3 cells, JC-1, flow cytometry, set 2 (AID 504566); type: functional; settings: read-out: EC50_MICROM_;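 further: flow cytometry median green fluorescence of retained JC-1 dye; potency of efflux pump inhibition measured as rising substrate retention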
[3] = LGR2 antagonists, dose response, cell-based, HEK293, CRE-luciferase reporter, cherry pick, set 2 (AID 743343); type: functional;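 further: transfected cells were stimulated with diluted bursicon conditioned medium after compound addition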
[4] = HepG2 cell cytotoxicity, dose response, cytotoxicity control, plate reader, cherry-pick, antagonist series (AID 743416); type: functional, cell-based
[5] = target: T2, COUP transcription factor 2 (Homo sapiens, UniProt P24468); assay: Luminescence-based cell-based high throughput dose response assay to identify inhibitors of COUP-TFII (NR2F2).; type: functional;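 further: HEK293 cells transiently cotransfected with COUP-TFII expression vector and reporter; luciferase reporter luminescence driven by COUP-TFII from the pX2-168 reporter plasmid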
T2 sequence (P24468 whole entry): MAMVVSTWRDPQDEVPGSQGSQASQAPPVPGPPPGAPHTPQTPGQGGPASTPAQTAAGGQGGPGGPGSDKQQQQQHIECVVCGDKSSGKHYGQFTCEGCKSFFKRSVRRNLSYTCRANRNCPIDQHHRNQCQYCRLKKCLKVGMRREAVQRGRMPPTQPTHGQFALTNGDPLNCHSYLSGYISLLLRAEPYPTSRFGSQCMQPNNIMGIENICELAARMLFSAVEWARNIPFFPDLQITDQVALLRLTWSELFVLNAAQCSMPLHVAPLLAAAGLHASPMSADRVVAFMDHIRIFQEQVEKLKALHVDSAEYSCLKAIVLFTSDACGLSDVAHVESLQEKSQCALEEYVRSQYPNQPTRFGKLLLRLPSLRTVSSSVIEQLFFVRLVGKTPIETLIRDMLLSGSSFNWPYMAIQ

[6] = HEK293 cell cytotoxicity, dose response, cytotoxicity control, plate reader, cherry-picked samples (AID 743446); type: functional, cell-based
H9c2 = assay: cells; type: functional, cell-based; settings: Rattus norvegicus, H9c2, Myocardium
[7] = A549 cell cytotoxicity, dose response, cytotoxicity control, plate reader, cherry-pick, antagonist series (AID 743412); type: functional, cell-based
[8] = MC4R antagonists, dose response, counter-screen for LGR2 antagonist project, cell-based, plate reader, cherry pick (AID 743444); type: functional;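 further: transfected HEK 293 cells stimulated with alpha-MSH peptide; potency of inhibitors of the alpha-MSH evoked signal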
Beta-lactamase [9] = target: Beta-lactamase (Salmonella choleraesuis (strain SC-B67), UniProt Q5J463)
Beta-lactamase [10] = target: Beta-lactamase (Pseudomonas aeruginosa, UniProt Q79MP6);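 further: biochemical dose-response test of metallo-beta-lactamase enzyme inhibition, read out by epi-absorbance; purified recombinant IMP-1 metallo-beta-lactamase with nitrocefin as substrate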
[11] = cytotoxicity in OVCAR8 ovarian cancer cells, dose response, PAX8 project, cell-based, plate reader, dry powder samples (AID 743197); type: functional; settings: OVCAR-8
[12] = IGROV1 ovarian cancer cell cytotoxicity, dose response, PAX8 inhibitor project, plate reader, dry powder samples (AID 743043); type: functional, cell-based; settings: IGROV-1
[13] = NIH:OVCAR-3 ovarian cancer cell cytotoxicity, dose response, PAX8 inhibitor project, plate reader, dry powder samples (AID 743044); type: functional, cell-based
Paired box protein Pax-8 = Paired box protein Pax-8 (Homo sapiens, UniProt Q06710); assay: inhibitors of PAX8-driven TPO luciferase reporter, dose response, RMG-I cells, cherry-pick (AID 687027); type: functional, cell-based;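 further: luciferase reporter driven by Pax8 target thyroperoxidase promoter measured by SteadyGlo luminescence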
[14] = miR-122 activators in hepatoma reporter cells, dose response, cell-based, Huh7 psiCHECK-miR122, Renilla luciferase, cherry-picked (AID 651956); type: functional;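 further: huh7 hepatoma cells stably carrying a psiCHECK-2 miR-122 sensor plasmid; renilla luciferase signal reporting endogenous miR-122 activity after 48 h compound exposure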
Major prion protein = Major prion protein (Homo sapiens, UniProt P04156); type: functional, cell-based
[15] = target: T3, Probable nicotinate-nucleotide adenylyltransferase (Staphylococcus aureus (strain N315), UniProt P65502); type: functional, Staphylococcus aureus subsp. aureus N315;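 on IC50 Mean: confirmatory dose-response retesting of NadD inhibitor hits first found in an ultra-high-throughput screen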
[16] = target: T4, Zinc finger protein mex-5 (Caenorhabditis elegans, UniProt Q9XUB2); assay: MEX-5/TCR-2 RNA interaction inhibitors, dose response, biochemical, C. elegans, fluorescence polarization (AID 1960)
T4 sequence (Q9XUB2 whole entry): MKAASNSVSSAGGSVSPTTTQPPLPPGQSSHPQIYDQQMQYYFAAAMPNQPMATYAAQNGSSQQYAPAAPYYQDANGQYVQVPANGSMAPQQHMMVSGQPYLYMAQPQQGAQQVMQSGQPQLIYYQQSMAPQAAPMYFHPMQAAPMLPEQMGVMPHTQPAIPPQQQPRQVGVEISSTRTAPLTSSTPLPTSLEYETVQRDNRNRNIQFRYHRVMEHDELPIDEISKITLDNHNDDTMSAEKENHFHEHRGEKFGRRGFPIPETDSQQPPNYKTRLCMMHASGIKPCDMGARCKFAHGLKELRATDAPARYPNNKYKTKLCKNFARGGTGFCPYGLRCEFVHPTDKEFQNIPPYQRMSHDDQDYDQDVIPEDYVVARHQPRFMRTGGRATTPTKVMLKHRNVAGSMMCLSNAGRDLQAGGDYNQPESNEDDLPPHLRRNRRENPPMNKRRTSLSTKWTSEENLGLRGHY

[17] = target: T3, Probable nicotinate-nucleotide adenylyltransferase; type: functional, Staphylococcus aureus subsp. aureus N315; settings: read-out: IC50_Mean
[18] = target: T5, RNA-binding protein pos-1 (Caenorhabditis elegans, UniProt G5EF15); assay: inhibitors of POS-1/mex-3 RNA binding, dose response, biochemical, fluorescence polarization (AID 1964);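 further: purified POS-1 fused to maltose binding protein made in E. coli; potency of compounds blocking POS-1 binding to fluorescent RNA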
T5 sequence (G5EF15 whole entry): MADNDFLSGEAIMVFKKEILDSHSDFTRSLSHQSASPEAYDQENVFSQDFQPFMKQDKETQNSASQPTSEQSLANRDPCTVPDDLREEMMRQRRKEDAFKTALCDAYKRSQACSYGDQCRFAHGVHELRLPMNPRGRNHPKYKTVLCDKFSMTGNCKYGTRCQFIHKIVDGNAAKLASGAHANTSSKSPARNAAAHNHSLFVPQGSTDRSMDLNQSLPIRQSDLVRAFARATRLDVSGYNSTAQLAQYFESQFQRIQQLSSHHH

Mu-type opioid receptor = Mu-type opioid receptor (Homo sapiens, UniProt P35372); type: functional, cell-based;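 further: U2OS cells with beta-arrestin recruitment to OPRM1 by beta-gal complementation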
[19] = target: 5-hydroxytryptamine receptor 2A (Mus musculus, UniProt P35363); type: functional, cell-based;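 further: CHO-K1 cells with tagged receptor and beta-arrestin; agonist potency measured as compound-induced activation of the receptor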
[20] = target: Photoreceptor-specific nuclear receptor (Homo sapiens, UniProt Q9Y5X4); type: functional, cell-based;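 further: CHO-S cells with Gal4-NCOR and VP16-NR2E3 two-hybrid luciferase reporter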
[21] = intracellular Trypanosoma cruzi inhibitors in host cells – cell-based, plate reader, cherry-pick samples, set 3, dose response (AID 651818); type: functional;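 further: compounds incubated with infected cells for about four days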
Genome polyprotein = Genome polyprotein (dengue virus type 2, UniProt P29990); assay: Dengue-2 NS5 methyltransferase inhibitors, primary screen, biochemical, confirmation dose response (AID 588689); type: functional
[22] = target: DNA (cytosine-5)-methyltransferase 1 (Homo sapiens, UniProt P26358); assay: DNMT1 methyltransferase inhibitors, confirmation, biochemical, fluorescent molecular beacon (AID 602386); type: functional
Cytochrome P450 2C9 = Cytochrome P450 2C9 (Homo sapiens, UniProt P11712)
[23] = target: T6, High affinity choline transporter 1 (Homo sapiens, UniProt Q9GZV3); assay: CHT inhibitors, dose response, cell-based, 5-point CRC, membrane potential dye (AID 504840); type: functional
T6 sequence (Q9GZV3 whole entry): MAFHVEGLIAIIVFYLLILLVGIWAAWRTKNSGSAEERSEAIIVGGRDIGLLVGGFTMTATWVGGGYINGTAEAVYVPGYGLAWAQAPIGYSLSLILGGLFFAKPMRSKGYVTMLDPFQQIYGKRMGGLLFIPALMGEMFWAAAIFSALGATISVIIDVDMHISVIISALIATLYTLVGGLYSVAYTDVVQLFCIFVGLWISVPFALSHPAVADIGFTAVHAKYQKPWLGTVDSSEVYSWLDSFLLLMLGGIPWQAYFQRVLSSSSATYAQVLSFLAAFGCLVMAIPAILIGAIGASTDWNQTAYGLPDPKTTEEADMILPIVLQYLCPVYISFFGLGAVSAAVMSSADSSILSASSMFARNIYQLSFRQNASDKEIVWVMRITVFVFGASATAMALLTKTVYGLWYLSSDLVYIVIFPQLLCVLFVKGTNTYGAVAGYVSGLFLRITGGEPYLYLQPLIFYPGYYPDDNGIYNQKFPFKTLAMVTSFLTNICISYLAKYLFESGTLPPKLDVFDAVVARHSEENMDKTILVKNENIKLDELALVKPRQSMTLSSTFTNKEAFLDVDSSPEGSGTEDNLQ

[24] = target: T6, High affinity choline transporter 1; assay: CHT inhibitors, dose response, cell-based, 10-point CRC, membrane potential dye (AID 588401); type: functional;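 further: membrane potential dye fluorescence of choline-evoked depolarization via CHT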
INS1 = assay: beta cell apoptosis inhibitors, cytokine rescue, dose response, luminescence, retest (AID 449756); type: functional, cell-based; settings: Rattus norvegicus;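 further: cell death triggered by IL-1 beta plus TNF-alpha plus IFN-gamma mixture; protective hits raise ATP signal compared with cytokine alone wells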
[25] = target: T7, Carboxy-terminal domain RNA polymerase II polypeptide A small phosphatase 1 (Homo sapiens, UniProt Q9GZU7); assay: inhibitors of CTDSP1, concentration-response testing, biochemical assay, absorbance-based, actives from ultra-high-throughput screening (AID 540297); type: functional
T7 sequence (Q9GZU7 whole entry): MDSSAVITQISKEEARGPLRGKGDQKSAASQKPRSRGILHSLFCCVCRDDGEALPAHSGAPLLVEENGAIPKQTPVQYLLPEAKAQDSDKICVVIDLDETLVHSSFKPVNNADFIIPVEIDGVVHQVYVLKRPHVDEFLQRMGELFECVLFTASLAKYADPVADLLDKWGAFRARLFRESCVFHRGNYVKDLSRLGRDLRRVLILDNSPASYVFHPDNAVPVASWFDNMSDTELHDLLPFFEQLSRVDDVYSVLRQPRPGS

[26] = target: T8, Small ubiquitin-related modifier 1 (Homo sapiens, UniProt P63165); assay: inhibitors of SUMO1 partner interactions, dose response, biochemical, FRET (AID 624383); type: functional; settings: read-out: IC50_Mean
[27] = target: T8, Small ubiquitin-related modifier 1; assay: inhibitors of SUMO1 peptide binding, dose response, biochemical, fluorescence polarization, uHTS hits (AID 624382); type: functional; settings: read-out: IC50_Mean
[28] = T. cruzi growth inhibition in host cells, dose response, cell-based, plate reader, dry powder, set 2 (AID 652275); type: functional

## Cc1nc2cc(-c3cccc(Cl)c3)nn2c(N2CCN(C(=O)c3ccsc3)CC2)c1C
[1]
  EC50: 4.62 µM (active)
[2]
  EC50: 0.56 µM (active)

## COc1ccccc1-c1cc2nc(-c3ccccc3)cc(N3CCN(C(=O)c4ccco4)CC3)n2n1
[3]
  AC50: 6.6 µM (active)
[1]
  EC50: 3.41 µM (active)
[4]
  AC50: 2.29 µM (active)
[5]
  IC50: 4.17 µM (active)
[6]
  AC50: 7.31 µM (active)
H9c2
  IC50: > 79 µM (inactive)
[2]
  EC50: 0.94 µM (active)
[7]
  AC50: 7.34 µM (active)
[8]
  AC50: 6.15 µM (active)

## Cc1nn(-c2ccccc2)c(Cl)c1/C=C(\CC(=O)O)c1nc2ccccc2s1
Beta-lactamase [9]
  IC50: > 59.6 µM (inactive)
Beta-lactamase [10]
  IC50: > 59.6 µM (inactive)

## COc1cccc(-c2ccc3c(c2)[C@H]2[C@H](CCN2S(=O)(=O)c2ccccc2OC)[C@@H](CO)N3C)c1
[11]
  AC50: 25.4 µM (active)
[12]
  AC50: 34.3 µM (active)
[13]
  AC50: 21.6 µM (active)
Paired box protein Pax-8
  AC50: 11.1 µM (active)

## CNC(=O)C[C@H]1CC[C@@H]2[C@H](COc3ccc(NC(=O)Nc4ccccc4OC)cc3C(=O)N2C)O1
[14]
  AC50: 23.1 µM (active)

## Cn1c(=O)c(C(=O)CSc2nncs2)c(N)n(Cc2ccccc2)c1=O
Major prion protein
  IC50: 8.53 µM (active)
cells
  IC50: > 138 µM (inactive)

## CCCCC1=CC2=CC(=O)C(C)(OC(=O)c3cccs3)C(=O)C2=CO1 (stereo unspecified)
[15]
  IC50: 10.9 µM (active)
[16]
  EC50: 30.9 µM (active)
[17]
  IC50: 34.4 µM (active)
[18]
  EC50: 35.4 µM (active)

## COC(=O)C1CCN(CC(=O)Nc2ccc3c(c2)OCCO3)CC1
Mu-type opioid receptor
  EC50: 92.5 µM (inactive)
[19]
  EC50: 76.1 µM (inactive)

## Cc1ccc(-c2nc(NC(=O)CSc3nnnn3-c3ccccc3)ns2)cc1
[20]
  IC50: 1.06 µM (active)

## C[C@H]1CN([C@@H](C)CO)C(=O)Cc2cc(NS(=O)(=O)c3ccc(Cl)cc3)ccc2O[C@@H]1CN(C)Cc1ccc(-c2ccccc2)cc1
[21]
  AC50: 3.8 µM (active)

## Nc1ccc(S(=O)(=O)Nc2nccs2)cc1N=Nc1ccccc1[N+](=O)[O-]
Genome polyprotein
  IC50: 64.7 µM (active)
[22]
  IC50: 7.09 µM (active)

## COc1cccc(-c2cc3c(=O)n(-c4ccccc4)c(=S)[nH]c3s2)c1
Major prion protein
  IC50: 6.34 µM (active)
cells
  IC50: > 138 µM (inactive)

## C[C@@H]1CCCCO[C@@H](CN(C)Cc2ccc(C(F)(F)F)cc2)[C@@H](C)CN([C@H](C)CO)C(=O)c2cc(NC(=O)Nc3ccc(C(F)(F)F)cc3)ccc2O1
[21]
  AC50: 3.49 µM (active)

## CC(=O)NN1C(=O)c2ccc(Oc3cccc([N+](=O)[O-])c3)cc2C1=O
Cytochrome P450 2C9
  AC50: 31.6 µM (inconclusive)
[23]
  IC50: 9.92 µM (active)
[24]
  IC50: 4.5 µM (active)

## O=[N+]([O-])c1ccc(NC(S)=NCCc2ccc(F)cc2)cc1
[20]
  IC50: 5.06 µM (active)
INS1
  AC50: 6.89 µM (active)

## CCOC(=O)c1c(NC(=O)COC(=O)c2ccc(NC(=O)CC#N)cc2)sc(C(=O)NC)c1C
[25]
  IC50: 3.43 µM (active)
[26]
  IC50: 6.69 µM (active)
[27]
  IC50: > 66.6 µM (inactive)

## CCCN(CCC)C1CCc2ccc(O)cc2C1 (stereo unspecified)
Mu-type opioid receptor
  EC50: 92.4 µM (inactive)
[19]
  EC50: 0.0038 µM (active)

## COc1ccc(OC)c(Nc2nc3ccccc3n3cnnc23)c1
[26]
  IC50: 19.2 µM (active)
[27]
  IC50: > 66.6 µM (inactive)

## Cc1ccccc1-c1ccc([C@H]2[C@H](CO)N3CCCCN(C(=O)CN4CCOCC4)C[C@@H]23)cc1
[28]
  AC50: 0.42 µM (active)
